The results in this text go back to ChEMBL document CHEMBL1134933, “Hydroxamate based inhibitors of adenylyl cyclase. Part 2: the effect of cyclic linkers on P-site binding” (Bioorg Med Chem Lett, 2002).

The target in the test is Adenylate cyclase type 5 (Homo sapiens, UniProt O95622). The test can be described thus: Inhibitory concentration against Type V Adenyl Cyclase enzyme.
Chain of Adenylate cyclase type 5 (O95622 whole entry): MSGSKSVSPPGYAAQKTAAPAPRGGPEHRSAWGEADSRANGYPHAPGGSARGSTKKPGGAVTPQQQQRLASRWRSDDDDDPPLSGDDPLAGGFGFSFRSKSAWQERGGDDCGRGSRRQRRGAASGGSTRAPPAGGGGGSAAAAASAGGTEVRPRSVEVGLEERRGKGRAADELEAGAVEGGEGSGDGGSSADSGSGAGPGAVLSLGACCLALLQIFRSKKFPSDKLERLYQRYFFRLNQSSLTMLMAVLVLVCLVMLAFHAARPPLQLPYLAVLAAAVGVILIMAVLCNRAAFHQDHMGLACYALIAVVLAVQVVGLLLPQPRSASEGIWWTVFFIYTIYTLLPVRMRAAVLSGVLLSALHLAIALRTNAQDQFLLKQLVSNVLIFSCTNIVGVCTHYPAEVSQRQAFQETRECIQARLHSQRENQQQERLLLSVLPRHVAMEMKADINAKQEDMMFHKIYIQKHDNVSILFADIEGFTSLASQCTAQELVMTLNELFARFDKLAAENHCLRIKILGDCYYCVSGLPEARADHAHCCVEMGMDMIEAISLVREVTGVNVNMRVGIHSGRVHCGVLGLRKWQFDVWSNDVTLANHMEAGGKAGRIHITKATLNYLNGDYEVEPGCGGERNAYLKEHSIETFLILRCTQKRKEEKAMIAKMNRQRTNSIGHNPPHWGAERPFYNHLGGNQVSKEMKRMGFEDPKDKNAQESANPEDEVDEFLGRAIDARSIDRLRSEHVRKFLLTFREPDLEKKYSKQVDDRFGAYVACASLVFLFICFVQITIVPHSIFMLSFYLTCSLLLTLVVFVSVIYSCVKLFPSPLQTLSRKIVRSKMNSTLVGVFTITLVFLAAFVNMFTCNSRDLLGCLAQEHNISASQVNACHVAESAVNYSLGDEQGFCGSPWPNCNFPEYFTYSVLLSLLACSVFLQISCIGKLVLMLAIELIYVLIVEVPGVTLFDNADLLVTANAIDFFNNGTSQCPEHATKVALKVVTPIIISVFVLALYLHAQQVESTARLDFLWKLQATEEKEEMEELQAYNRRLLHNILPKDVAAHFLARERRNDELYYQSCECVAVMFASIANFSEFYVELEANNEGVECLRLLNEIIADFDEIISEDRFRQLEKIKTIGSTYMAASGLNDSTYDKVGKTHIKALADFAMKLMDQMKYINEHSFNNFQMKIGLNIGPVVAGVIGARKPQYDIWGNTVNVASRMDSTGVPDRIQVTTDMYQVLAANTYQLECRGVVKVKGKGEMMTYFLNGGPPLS

The term IC50 denotes the concentration needed to halve the response being measured. Low readings indicate inhibition by little substance, high ones a need for much substance. For `Nc1ncnc2c1ncn2[C@H]1CC[C@@H](OCC(=O)O)C1`, the IC50 was more than 200 µM.

Turning to `Nc1ncnc2c1ncn2[C@@H]1CC[C@H](OCC(=O)O)C1`, the IC50 amounted to 79 µM.

`Nc1ncnc2c1ncn2[C@@H]1C=C[C@H](OCC(=O)O)C1` displayed an IC50 of 98 µM.

`Nc1ncnc2c1ncn2[C@@H]1C=C[C@H](OCC(=O)NO)C1` (stereo in doubt; 5a) registered an IC50 of 102 µM.

`Nc1ncnc2c1ncn2[C@H]1CC[C@@H](OCC(=O)NO)C1` (stereo in doubt; 8c): the IC50 is more than 200 µM.

The compound `Nc1ncnc2c1ncn2[C@H]1C=C[C@@H](OCC(=O)NO)C1` (stereo in doubt; 5c) came in with an IC50 of 116 µM.

`Nc1ncnc2c1ncn2[C@@H]1C=C[C@H](OCC(=O)NO)C1` (stereo in doubt; 5d) returned an IC50 of 96 µM.

Compound `Nc1ncnc2c1ncn2[C@H]1C=C[C@H](OCC(=O)O)C1` gave an IC50 of more than 200 µM.

Consider `Nc1ncnc2c1ncn2[C@H]1C=C[C@@H](OCC(=O)NO)C1` (stereo in doubt; 5b), for which the IC50 is 13.6 µM.

In turn, `Nc1ncnc2c1ncn2[C@H]1CC[C@H](OCC(=O)O)C1` registered an IC50 of more than 200 µM.

Regarding `Nc1ncnc2c1ncn2[C@@H]1CC[C@H](OCC(=O)NO)C1` (stereo in doubt; 8d), the IC50 worked out at 109 µM.

As to `Nc1ncnc2c1ncn2[C@@H]1CC[C@H](OCC(=O)NO)C1` (stereo in doubt; 8b), the IC50 amounted to 10.8 µM.

In turn, `Nc1ncnc2c1ncn2[C@H]1CC[C@@H](OCC(=O)NO)C1` (stereo in doubt; 8a) came in with an IC50 of 110 µM.

For the compound `Nc1ncnc2c1ncn2[C@H]1C=C[C@@H](OCC(=O)O)C1`, the IC50 stood at 78 µM.

For `Nc1ncnc2c1ncn2[C@@H]1CC[C@@H](OCC(=O)O)C1`, the IC50 was more than 200 µM.

For `Nc1ncnc2c1ncn2[C@@H]1C=C[C@@H](OCC(=O)O)C1`, inhibition was half-maximal at 72 µM (IC50).
